Results: patent publication US20190159449A1, “USE OF NON-PROLINE CYCLIC AMINO ACIDS TO INCREASE THE TOLERANCE OF PLANTS TO CONDITIONS OF OSMOTIC STRESS” (CONSEJO SUPERIOR DE INVESTIGACIONES CIENTÍFICAS (CSIC), priority 2016, published 2019)
Marks after values point to notes of the source that are not given here.

Legend:
Type in all cases: in vivo
Arabidopsis thaliana = assay: Salt stress (50 mM NaCl) growth assay of hydroponically grown Arabidopsis thaliana after 24 h root treatment; conditions: for Fresh weight / RGR (relative growth rate) / S.I (sensitivity index) / % reduction RGR: 2.5 mM treatment 24 h; for Fresh weight: aerial part; for Effect on growth and tolerance to salt stress (in words): 2.5 mM treatment, 50 mM NaCl; for S.I (sensitivity index) / % reduction RGR: 7 days with 50 mM NaCl; for S.I (sensitivity index): S.I = DWs − DWc/DWc; for % reduction RGR: relative to control conditions
Method: The conditions described below were used as the base for all examples included below. The growing conditions, such as the nutrient solution and the substrate used have been optimized to perform this type of experiments. Likewise, the dose of NaCl used has been optimized for this type of experiments since 50 mM makes it possible to evaluate if a treatment is capable of increasing tolerance to salinity (Jiménez-Arias et al., 2015. Environmental and Experimental Botany 120, 23-30).
A hydroponic culture system was used for the cultivation of the Arabidopsis thaliana plants necessary for the assays. This system was established in hydroponics trays with 1.9 L capacity (Araponics®) wherein 18 plants were grown per container. A mixture of river sand with two different granulometries was used as physical substrate. The seeds were sowed in seed-holders, which were deposited during one week in a small greenhouse consisting of a high-density polyethylene tray with river sand (washed siliceous sand, with medium granulometry) with sterile distilled water covered with a transparent plastic sheet which was deposited in a growth chamber at 22±2° C., with a photoperiod of 16 hours of light (100-110 μmol m-2 s-1 of PAR) and with 100% relative humidity. After one week, the seed-holders with the seedlings were transferred to the hydroponics trays in the same photoperiod and light intensity conditions but with 60-70% of relative humidity. The seedlings were maintained without aeration during the first week, after this the solution (Table 1) was generously aerated using aeration pumps and was renewed every 7 days.
(§1) In this way, 21-day old plants were treated during 24 hours in nutrient solution enriched with a concentration of 2.5 mM of alanine. Subsequently, the plants were deposited in normal nutrient solution for 24 hours and they later grew for 7 days in nutrient solution with or without a supply of 50 mM of NaCl. This experiment was repeated twice, using 12 plants per experiment, with the value shown in table 2 being the average of 24 plants for each one of the conditions.
Subsequently, the wet weight of the aerial part of the plants was determined.
as §1, with “21-day” for “In this way, 21-day”, “pyroglutamic acid or pipecolinic acid.” for “alanine.”
The plants were deposited in nutrient solution enriched with one of the compounds indicated above for 24 hours and they later grew for 7 days in nutrient solution with a supply of 50 mM of NaCl. As control, the plants grown on nutrient solution and NaCl were used. This experiment was repeated twice, using 12 plants per experiment, with the value shown in table 2 being the average of 24 plants for each one of the conditions.
Two measurements were used in order to illustrate the defence to salt stress. First, the values for the sensitivity index (S.I) described by Saadallah et al. (2001, Agronomie 21, 627-634) is shown.
The greater the negative value of the S.I., the greater the negative effect of salinity on the plant. The second measurement is a percentage of reduction in the relative a growth rate of the plant subjected to conditions of salt stress.

[1] = system: Solanum lycopersicum (tomato); assay: Salt stress growth assay of hydroponic tomato plants after 24 h root treatment; conditions: 2.5 mM; for Decrease in growth in saline conditions with respect to growth in the control solution: 7 days in NaCl solution, fresh weight; for Increase in tolerance compared with the proline treatment / Increase in tolerance compared with the control: saline conditions; for Increase in tolerance compared with the proline treatment: versus proline 2.5 mM; for Increase in tolerance compared with the control: versus reference group
Method: As an example, tomato (Solanum lycopersicum) of the variety Realeza pear was used. […] From the first day, the solution was generously aerated by air pumps (30 min per day). The plants were maintained during two days with this proportion of solution and distilled water, and then they were removed from the medium and placed, under the same conditions, in plastic containers during 24 hours with the different treatments in distilled water (table 5): After 24 hours, the plants were again introduced in the trays with the same proportion of distilled water/nutrient solution stated above and they were maintained like this for 48 hours. […] Then, the growth of treated and untreated plants was compared, in normal conditions and salinity conditions. For the statistical analysis, the data collected was subjected to the normality test of the Kolmogorov-Smirnov test with the Lilliefors correction. Levene's test was used to verify the homoscedasticity of the data. As the data behaved following a normal distribution, its measurements were compared by one-way ANOVA and the significant differences were calculated using the Bonferroni post hoc test. The statistical analyses were performed with the SSPS computer package, version 20 for Windows.

[2] = system: Solanum lycopersicum (tomato); assay: Drought (water deficit) assay of tomato in greenhouse conditions; conditions: four root treatments at 2.5 mM, after 10 days of drought; for Net photosynthesis: versus drought reference
Method: The crop used was tomato (Solanum lycopersicum) of the “Gransol” capa negra variety. The experiment was performed in a glass greenhouse with four tables measuring 10 metres in length by 2 metres in width. Drip irrigation was used, supplied by self-compensated drippers to control the flow of water at all times.
5-week old seedings were transplanted to 2-litre capacity pots using a mixture of peat and river sand to facilitate drainage. In total, 120 tomato plants were used. Four treatments were performed on 40 plants after the transplant (with 15 days between each treatment), adding 50 ml of a 2.5 mM concentration of Pyroglutamic to each pot.
Another 40 plants were treated via root applications using 2.5 mM of pipecolinic acid. The remaining plants randomly distributed throughout the greenhouse were treated with distilled water by way of control. The drought assay commenced on completing the four treatments, which was performed by removing the dripper from the 20 plants randomly chosen for each one of the treatments. The plants were deprived of water for 10 days.
The relative water content of the leaf was estimated after 10 days of drought for each one of the treatments, in control conditions and drought conditions, using 15 leaves. The following formula was used for this:
R.W.C(%)/=[(Fw−Dw)/(Tw−Dw)]×100
With Fw: fresh weight; Dw: dry weight; Tw: turgor weight. RWC is the measurement most commonly used to estimate the possible water deficit a plant leaf has.
Furthermore, photosynthesis was estimated with the “Lc-pro sd” system (ADC Bioscientific). To do this, the tomato leaves were stimulated with a light source at 1000 μmol m-2 s-1, with this light intensity being previously estimated to achieve the maximum photosynthesis in our crop and conditions. To do this, the parameters of net photosynthesis (A) and evapotranspiration (E) were determined, calculating with them the efficiency in water use (A/E) as described by Lambers et al. (2008. Plant Physiological Ecology. 2nd edition. Springer, New York). The measurements were taken after 10 days of assay from six plants for each one of the treatments.
The data of the different variables were subjected to the normality test using the Kolmogorov-Smirnov test with the Lilliefors correction. Levene's test was used to verify the homoscedasticity of the data. As the data behaved following a normal distribution, its measurements were compared by one-way ANOVA and the significant differences were calculated using the Bonferroni post hoc test. The statistical analyses were performed with the SSPS computer package, version 20 for Windows.

[3] = 7 days in nutrient solution with 50 mM NaCl (saline conditions)
[4] = 7 days in nutrient solution without NaCl (optimal conditions)
[5] = 7 days with 50 mM NaCl (saline conditions)
[6] = 7 days without NaCl (optimal conditions)

| SMILES | Fresh weight (Arabidopsis thaliana; [3]) [mg plant] | Fresh weight (Arabidopsis thaliana; [4]) [mg plant] | RGR (relative growth rate) (Arabidopsis thaliana; [5]) | RGR (relative growth rate) (Arabidopsis thaliana; [6]) | Effect on growth and tolerance to salt stress (in words) (Arabidopsis thaliana) | S.I (sensitivity index) (Arabidopsis thaliana) | % reduction RGR (Arabidopsis thaliana) | Decrease in growth in saline conditions with respect to growth in the control solution [1] [%] | Decrease in growth under control conditions with respect to the reference ([1]; 7 days, control solution without salt, plant weight) [%] | Increase in tolerance compared with the proline treatment [1] [%] | Increase in tolerance compared with the control [1] [%] | Decrease in relative water content of the leaf with respect to its control [2] | Net photosynthesis [2] |
| --- | --- | --- | --- | --- | --- | --- | --- | --- | --- | --- | --- | --- | --- |
| C[C@H](N)C(=O)O [Alanine, alanine, reference compound] | 36 ± 2 | 142 ± 8 | 0.11** | 0.58 | not capable of promoting growth, nor increasing tolerance to salinity |  |  |  |  |  |  |  |  |
| O=C(O)[C@@H]1C[C@@H](O)CN1 [Hydroxyproline, hydroxyproline, reference compound] |  |  |  |  |  | −0.25** | 24.34** % | 17 | 35 |  |  |  |  |
| O=C(O)C1CCCCN1 (stereo not shown) [Pipecolinic acid, pipecolinic acid] | 133.9 ± 21 | 145.9 ± 22 | 0.45 | 0.46 | effect on the increased tolerance to salt stress is proven | −0.07** | 8.12** % | 7 |  | 83 | 78 | 5.1% | greater than the drought reference plants |
| O=C(O)[C@@H]1CCCN1 [Proline, proline] |  |  |  |  |  |  |  | 42 |  |  |  |  |  |
| O=C1CC[C@@H](C(=O)O)N1 [Pyroglutamic acid, pyroglutamic acid] | 170.4 ± 15 | 183.9 ± 15 | 0.49 | 0.56 | effect on the increased tolerance to salt stress is proven | −0.1** | 10.22** % | 9 |  | 78 | 72 | did not show this decrease | greater than the drought reference plants |
